We go through two compounds from publication PMC7290365, “Human Induced Pluripotent Stem Cell-Derived 3D-Neurospheres Are Suitable for Neurotoxicity Screening” (Cells, 2020).

Where two headings read alike, the source gives them in different places.

Broadly, the EC10 is the concentration needed for an effect of 10%. The EC25 is the concentration at which the effect reaches the 25% level. The EC50 is the concentration at which the effect is half-maximal.

The subject of series [1] is hiPSC-derived 3D neurospheres. Nature of the series: cells. Type of series: cell-based, human. Particulars: for EC10 / EC25 / EC50: Homo sapiens, 72 h. The protocol:
After thawing, NSCs (generated as detailed above) were cultured on POL/L (0.002%/1 µg/cm^2) coated plates (50,000 cells/cm^2). When reached 100% confluence NSCs were propagated with Accutase treatment and single-cell suspension was plated onto a low-adherent 96-well plate with 10,000 cells/well in NMM medium. […] Samples were collected at Day 0 (D0), Day 2 (D2), and weekly intervals from the end of the 1st week (D7) until the end of the 6th week (D14, D21, D28, D35, and D42).
Eleven well-known compounds were tested in 7 different concentrations to generate concentration-response curves. The tested compounds with the used concentrations are detailed in Table S3. […] In each assay plate, 4 technical replicates were applied from each sample and 3 biological replicate assays were run (n = 3). The 3D cell cultures were exposed to the toxicants for 72 h (exposure schemes are detailed in Figure 5A or Figure 6A or Figure 7A). Vehicle control was used as a regular medium supplemented with 0.1% DMSO.
ATP viability assay was performed with CellTiter-Glo® 3D Cell Viability Assay, according to the manufacturer’s protocol (Promega). Neurospheres were lysed with 100 μL CellTiter-Glo® 3D Reagent for 60 min at RT. Luminescence signal was recorded with a Thermo VarioScan Flash (Thermo Fisher Scientific) plate reader.
All results were analyzed using Prism 5 (GraphPad Software, La Jolla, CA, USA) and handled in Microsoft Office 2010 (Microsoft, Redmond, WA, USA) software. For normalization of the concentration response, the average values of positive control were used as 0% and the average of vehicle control served as 100%. Four parameter curve fitting methods were used to determine EC10 and EC50 values, where the data on the graphs represent the average of three biological replicates. The “n” value corresponds to the number of biological replicates for each tested concentration. Analysis of data is presented as the mean ± SEM. Significance of data was determined with paired T test for RT-qPCR (* p < 0.01) and with One-way ANOVA for concentration response (* p < 0.05; ** p < 0.01).

The test system of series [2] is XBP1(S). The experiment in a line: XBP1 assay of endoplasmic reticulum stress. The class given is cell-based, human. Particulars: listed as ROT. The procedure: Upon accumulation of unfolded proteins in the endoplasmic reticulum (ER), a 26-nucleotide fragment from the X-box binding protein 1 mRNA (XBP1(U)) is removed with a special splicing mechanism. This shorter mRNA (XBP1(S)) is a frequently used marker of ER-stress. To study the expression of XBP1(S), previously described primers and our own primers were used (Table S2). As a positive control, cells were treated with 5 µM and 10 µM Tunicamycin to induce ER-stress. RT-PCR reactions were performed and analyzed as above, using Phusion Hot Start II High-Fidelity DNA Polymerase and 20 ng of the cDNA samples.

Series [3] has as its system LUHMES cells. Particulars: cited from earlier work.
Series [4] concerns humans. Particulars: ref PubChem database (https://pubchem.ncbi.nlm.nih.gov/); cited from earlier work.
The subject of series [5] is in vitro multicellular cytotoxicity. Particulars: multicellular cytotoxicity "comptox" data; ref EPA's Chemical dashboard (https://comptox.epa.gov/dashboard); cited from earlier work.
Series [6] has as its system hiPSC-derived 3D neurospheres. Nature of the series: TUNEL apoptosis assay on cryosectioned 3D neurospheres. Type of series: cell-based, human. Particulars: 0.5 µM for 72 h; average, in each stage (D21, D28, D42).
Experimental: Embedding and cryosectioning of 3D samples were performed as above. To detect apoptotic activity, the DeadEnd™ Colorimetric TUNEL System (Promega) was used on the middle cryosections (highest diameter) of the spheroids, following the instructions of the manufacturer. In brief, apoptosis was detected by immersing the slides in PBS for 5 min (at RT), adding 20 μg/mL Proteinase K solution and incubating for 10–30 min (at RT). After 5–10 min treatment in Equilibration buffer, recombinant terminal deoxynucleotidyl transferase (rTdT) was added to the reaction mixture. Next, the sections were incubated for 60 min at 37 °C inside of a humidified chamber to allow the end-labelling reaction to occur. The reaction was terminated by immersing the slides in saline-sodium citrate for 15 min (RT). Endogenous peroxidases were blocked by immersing the slides in 0.3% hydrogen peroxide in PBS for 3–5 min (RT). Streptavidin-HRP was added to slides, incubated for 30 min (RT), stained with diaminobenzidine (DAB) solution for 5 min until a light brown background appeared. For hematoxylin–eosin (HE) staining Mayer’s Hematoxylin solution was used for 3 min. […] Five Ctrl and five ROT-treated spheroids were randomly selected, and middle sections were analyzed from each differentiation stage (D21, D28, and D42) samples in three experiments (n = 3).
Series [7] deals with LUHMES cells. Particulars: LUHMES cells exposed; literature value, reference not given; cited from earlier work.

Regarding `C=C(C)[C@H]1Cc2c(ccc3c2O[C@@H]2COc4cc(OC)c(OC)cc4[C@@H]2C3=O)O1` [Rotenone], the EC10 was 0.0129 µM in series [1] (read-out: EC10 (cell viability), D21 3D neurospheres, 72 h exposure); 0.00646 µM in series [1] (read-out: EC10 (cell viability), D28 3D neurospheres, 72 h exposure); 0.00447 µM in series [1] (read-out: EC10 (cell viability), D42 3D neurospheres, 72 h exposure). Besides, the EC25 in series [1] (read-out: EC25 (cell viability), D21 3D neurospheres, 72 h exposure) is 0.0562 µM; in series [1] (read-out: EC25 (cell viability), D28 3D neurospheres, 72 h exposure), 0.0347 µM; in series [1] (read-out: EC25 (cell viability), D42 3D neurospheres, 72 h exposure), 0.0331 µM. The 50% effective concentration (EC50) was 0.245 µM in series [1] (read-out: EC50 (cell viability), D21 3D neurospheres, 72 h exposure); 0.182 µM in series [1] (read-out: EC50 (cell viability), D28 3D neurospheres, 72 h exposure); 0.24 µM in series [1] (read-out: EC50 (cell viability), D42 3D neurospheres, 72 h exposure). The “ER-stress inducing effect (XBP1 assay)” value in series [2] is recorded as “no ER-stress inducing effect”. Also, the “Neurite outgrowth of LUHMES cells (in words)” value in series [3] is “prominent neurite growth inhibition”. Besides, the “Probable lethal dose in human” value in series [4] is 300 to 500 mg/kg. For the same compound, the “In vitro cytotoxicity limit” value in series [5] is on record as 0.22 µM. The “Increase in the apoptotic cell number compared to the control” value in series [6] is 15%.

With `CCCC(CCC)C(=O)O` [Valproic acid, 2-Propylpentanoic acid], in series [1] (D21 3D neurospheres, 72 h exposure), the “EC50 (cell viability)” value is listed as over 2.6 log µM. Further, the “Effect on viability of 3D neurospheres (in words)” value in series [1] (D21 stage, 72 h exposure, investigated concentration range) is reported as “minimal effect on the viability”. The EC10 is over 398 µM in series [1] (D21 3D neurospheres, 72 h exposure, read-out: EC10 (cell viability) (converted)); over 398 µM in series [1] (D28 3D neurospheres, 72 h exposure, read-out: EC10 (cell viability) (converted)); over 398 µM in series [1] (D42 3D neurospheres, 72 h exposure, read-out: EC10 (cell viability) (converted)). Besides, the 25% effect concentration (EC25) in series [1] (D21 3D neurospheres, 72 h exposure, read-out: EC25 (cell viability) (converted)) was over 398 µM; in series [1] (D28 3D neurospheres, 72 h exposure, read-out: EC25 (cell viability) (converted)), over 398 µM; in series [1] (D42 3D neurospheres, 72 h exposure, read-out: EC25 (cell viability) (converted)) it was over 398 µM. For the same compound, the EC50 in series [1] (D21 3D neurospheres, 72 h exposure, read-out: EC50 (cell viability) (converted)) is over 398 µM; in series [1] (D28 3D neurospheres, 72 h exposure, read-out: EC50 (cell viability) (converted)) it was over 398 µM; in series [1] (D42 3D neurospheres, 72 h exposure, read-out: EC50 (cell viability) (converted)) it was over 398 µM; in series [7] it was over 100 µM. The “Effect on cell viability (in words)” value in series [1] (investigated concentration range, D21, D28, D42 neurospheres) is on record as “no detectable impact”. In addition, in series [3], the “Neurite outgrowth of LUHMES cells (in words)” value is recorded as “significant inhibition of neurite outgrowth”.
